Experimental data taken from patent publication US20070082061A1, “REDUCTION OF SALTINESS WITH SWEETENERS” (priority 2005, published 2007).
Where “and” joins values, the source holds several entries; their conditions need not be identical. Equal values may be shown once. Read-outs that look alike come from different tables or passages of the source. Where a SMILES comes first, the peptide text is derived from it.

Legend:
[1] = Taste tests to determine equivalent sweetness of sweeteners in a salty liquid (Example 4); assay type: in vivo, human
Procedure: Before a preferred sweetener for use in salty liquids could be determined, the amount of each sweetener required to provide an equivalent sweetness was determined. Multiple taste tests were performed comparing various concentrations of Sucralose, Ace-K, the 5:1 Ace-K/Sucralose blend, Saccharin, and sucrose in a salty liquid to determine an equivalent […].

[2] = Sweetener preference in diluted phosphate salt bowel cleanser, forty test subjects (Example 5); assay type: in vivo, human; conditions: scale 1 to 4, 60 mL phosphate salt bowel cleanser in 355 mL water
Procedure: Each solution was prepared by diluting 60 mL of the phosphate salt bowel cleanser from Example 2 in 355 mL of water and using either 0.05% Ace-K, 0.05% Sucralose, 0.08% saccharin, 0.05% of a 5:1 Ace-K/Sucralose blend, or 15% sucrose as the sweetener.

[3] = Sweetener concentration preference in diluted phosphate salt bowel cleanser, about 35 testers (Example 10); assay type: in vivo, human; conditions: for preferred sweetener concentration to decrease saltiness: in the phosphate salt bowel cleanser; for Average rating: scale 1 to 4, 4 highly preferred
Procedure: To confirm the correlation of FIG. 1 in a bowel cleanser with multiple sweeteners, approximately 35 testers were asked to select the most palatable solution from five possibilities. Each of the five solutions included 60 mL of the phosphate salt bowel cleanser from Example 2 in 355 mL of water. This solution has an equivalent saltiness to the 2% NaCI/water solution of Example 9. The first of the five solutions lacked any sweetener, while an increasing concentration of sweetener was added to the remaining four. Tests were performed using Sucralose, the 5:1 Ace-K/Sucralose blend, Ace-K, or Saccharin as the sweetener.
Tables 8, 9, 10, and 11, below, present the average test data for each sweetener, respectively.
The sweetener concentration for each data point corresponds to those in Tables 8 through 11, above, with higher values on the X-axis corresponding to higher sweetener concentrations.

[4] = considered to be; cited from earlier work
[5] = Stability of sweeteners in FLEET PHOSPHO-SODA (Example 1)
Procedure: While it is possible to add the sweetener and/or flavoring a short time before consumption of a phosphate salt bowel cleanser and retain at least a portion of the palatability benefits, one goal of the present bowel cleansing compositions is to provide stable liquids having increased palatability. Thus, numerous sweeteners and flavorings were tested for stability in phosphate salt bowel cleanser.
Sucrose, Saccharin, Sucralose, Aspartame, Ace-K, Thaumatin (Talin), Neohesperidine Dihydrochalcone (NHDC), and Trehalose were tested for stability in FLEET® PHOSPHO-SODA®.

[6] = Preferred Sucralose concentration in PEG based bowel cleanser NuLytely, thirty test subjects (Example 11); assay type: in vivo, human; conditions: for rating of individual test subject / rating, Average: scale 1 to 5, 5 highly preferred, PEG based bowel cleanser
Description: To determine the preferred concentration of Sucralose to reduce the saltiness of a PEG based bowel cleanser, test subjects were asked to taste unsweetened and three sweetened solutions of NuLytely®. NuLytely® is an aqueous liquid including approximately 420 g of 3350 PEG, 5.72 g of sodium bicarbonate, 11.2 g of NaCI, and 1.48 g of KCI. It has a similar perceived saltiness to the similar GoLytely®, which is an aqueous liquid including approximately 236 g of 3350 PEG, 22.74 g of sodium sulfate, 6.74 g of sodium bicarbonate, 5.86 g of NaCI, and 2.97 g of KCI. Either solution has a saltiness that approximates the 0.4% NaCl/water solution of Example 9.
Each of thirty test subjects was asked to rate the four solutions on a scale of 1 to 5 with 5 being highly preferred and 1 being least preferred. The first solution included no sweetener. The second, third, and fourth solutions included 0.01%, 0.025%, or 0.05% (w/w) of Sucralose, respectively.

[7] = Preference comparison of sweetened and unsweetened NaCl solutions and phosphate salt bowel cleansers (Example 8); assay type: in vivo, human
Description: To establish the reliability of the NaCI to bowel cleanser comparison, test subjects were asked to taste sweetened and unsweetened NaCI solutions and sweetened and unsweetened phosphate salt bowel cleansers. In this comparison of the sweetened and unsweetened NaCI solutions, out of 19 test subjects, 17 preferred the 2% NaCI solution that included 0.13% Sucralose. Furthermore, in the preference comparison of the sweetened and unsweetened phosphate salt bowel cleanser, 18 out of 20 test subjects preferred the phosphate salt bowel cleanser including 0.13% Sucralose. Therefore, the palatability increase provided by the Sucralose was similarly observed for the 2% NaCI/water solution and the phosphate salt bowel cleanser.

[8] = Mean acceptability ratings (Likert) of sweetener systems in phosphate salt bowel cleanser, 19 test subjects (Example 6); assay type: in vivo, human; conditions: at the same 0.38% concentration; systems with Ace-K
Procedure: A comparison between Saccharin/Ace-K and Sucralose/Ace-K was performed to determine which of these two sweetener systems most improved the palatability of a salty bowel cleanser. Table 3, below, provides the mean acceptability ratings for 19 test subjects who tasted 5:1 Saccharin/Ace-K and 5:1 Sucralose/Ace-K sweetener systems in 60 mL of the phosphate salt bowel cleanser from Example 2 in 355 mL of water.

[9] = Preferred Sucralose concentration in water, 0.4% NaCl and 2% NaCl, approximately 40 testers (Example 9); assay type: in vivo, human; conditions: for Preferred Sucralose Concentration (wt %): correlation line of FIG. 1
Description: To determine the preferred concentration of Sucralose to reduce the saltiness of bowel cleansers having different perceived saltiness, varying concentrations of Sucralose were tasted in water, a 0.4% NaCI water solution, and a 2% NaCI water solution. For each solution, approximately 40 testers were asked to rate four different concentrations of Sucralose. Tables 4, 5, and 6, below, present the average test data for the water, 0.4% NaCI water solution, and 2% NaCI water solution, respectively.
FIG. 1 plots the increasing salinity of the solutions from Tables 4, 5, and 6 against the preferred concentration of Sucralose required to reduce the saltiness and increase the palatability of each solution. The graph establishes that as saltiness increases, the amount of sweetener that should be added to improve palatability linearly increases (R^2=0.997). The X-axis NaCI and the Y-axis Sucralose concentrations represented by the correlation line from FIG. 1 are presented below in Table 7.

CC1=CC(=O)NS(=O)(=O)O1 [Ace-K, acesulfame potassium]
sweetener concentration providing an equivalent sweetness [1]: 0.05%
average preference value ([2]; 0.05% sweetener): 2.45
preferred sweetener concentration to decrease saltiness [3]: 0.05%
Average rating ([3]; Ace-K 0.025 % (w/w), phosphate salt bowel cleanser in water): 1.88
Average rating ([3]; Ace-K 0.05 % (w/w), phosphate salt bowel cleanser in water): 2.63
Average rating ([3]; Ace-K 0.1 % (w/w), phosphate salt bowel cleanser in water): 2.16
Average rating ([3]; Ace-K 0.2 % (w/w), phosphate salt bowel cleanser in water): 2.16
sweetness relative to sucrose / sugar [4]: about 200 times
stability in FLEET PHOSPHO-SODA [5]: acceptable stability

COC(=O)[C@H](Cc1ccccc1)NC(=O)[C@@H](N)CC(=O)O [Aspartame] (HELM PEPTIDE1{D.F.[CO[*:1]]}$$$$V2.0)
stability in FLEET PHOSPHO-SODA [5]: effectiveness diminished over time

COc1ccc(CCC(=O)c2c(O)cc(O[C@@H]3O[C@H](CO)[C@@H](O)[C@H](O)[C@H]3O[C@@H]3O[C@@H](C)[C@H](O)[C@@H](O)[C@H]3O)cc2O)cc1O [Neohesperidine Dihydrochalcone (NHDC), Neohesperidine Dihydrochalcone]
stability in FLEET PHOSPHO-SODA ([5]; sweetener in phosphate salt laxative solution): effectiveness diminished over time

O=C1NS(=O)(=O)c2ccccc21 [Saccharin]
sweetener concentration providing an equivalent sweetness [1]: 0.083%
average preference value ([2]; 0.08% sweetener): 2.5
preferred sweetener concentration to decrease saltiness [3]: about 0.0832%
Average rating ([3]; Saccharin 0.0208 % (w/w), phosphate salt bowel cleanser in water): 2.29
Average rating ([3]; Saccharin 0.0416 % (w/w), phosphate salt bowel cleanser in water): 2.47
Average rating ([3]; Saccharin 0.0832 % (w/w), phosphate salt bowel cleanser in water): 2.47
Average rating ([3]; Saccharin 0.1664 % (w/w), phosphate salt bowel cleanser in water): 1.97
sweetness relative to sucrose / sugar [4]: about 200 times
stability in FLEET PHOSPHO-SODA [5]: acceptable stability

OC[C@H]1O[C@H](O[C@]2(CCl)O[C@H](CCl)[C@@H](O)[C@@H]2O)[C@H](O)[C@@H](O)[C@H]1Cl [Sucralose]
preference of sweetened PEG based bowel cleanser compared with the unsweetened PEG cleanser ([6]; Sucralose-sweetened NuLytely): approximately 37%
preferred Sucralose concentration ([6]; in the PEG based bowel cleanser): 0.025%
rating of individual test subject ([6]; 0.01 % Sucralose): 4 (7×) and 2 (13×) and 3 (10×)
rating, Average ([6]; 0.01 % Sucralose): 2.80
rating of individual test subject ([6]; 0.025 % Sucralose): 4 (9×) and 2 (12×) and 3 (5×) and 1 (2×) and 5 (2×)
rating, Average ([6]; 0.025 % Sucralose): 2.90
rating of individual test subject ([6]; 0.05 % Sucralose): 2 (11×) and 1 (8×) and 5 (2×) and 4 (7×) and 3 (2×)
rating, Average ([6]; 0.05 % Sucralose): 2.47
sweetener concentration providing an equivalent sweetness [1]: 0.05%
number of test subjects preferring the sweetened solution ([7]; out of 19 test subjects, 2% NaCl solution with 0.13% Sucralose vs unsweetened): 17
number of test subjects preferring the sweetened cleanser ([7]; out of 20 test subjects, phosphate salt bowel cleanser with 0.13% Sucralose vs unsweetened): 18
average preference value ([2]; 0.05% sweetener): 3.2
preferred sweetener concentration to decrease saltiness [3]: 0.05%
Likert preferability comparison of sweeteners (FIG. 2) ([3]; phosphate salt bowel cleanser, scale 1 to 5, 5 most preferred, in words): most preferred
Average rating ([3]; Sucralose 0.0125 % (w/w), 60 mL phosphate salt bowel cleanser in 355 mL water): 2.56
Average rating ([3]; Sucralose 0.025 % (w/w), 60 mL phosphate salt bowel cleanser in 355 mL water): 2.72
Average rating ([3]; Sucralose 0.05 % (w/w), 60 mL phosphate salt bowel cleanser in 355 mL water): 3.22
Average rating ([3]; Sucralose 0.1 % (w/w), 60 mL phosphate salt bowel cleanser in 355 mL water): 2.88
preference for Sucralose over Saccharin [8]: up to 55%
sweetness relative to sucrose / sugar [4]: about 600 times
stability in FLEET PHOSPHO-SODA [5]: acceptable stability
Preferred Sucralose Concentration (wt %) ([9]; NaCl Concentration 0.0 wt %): 0.011 wt %
Preferred Sucralose Concentration (wt %) ([9]; NaCl Concentration 0.2 wt %): 0.015 wt %
Preferred Sucralose Concentration (wt %) ([9]; NaCl Concentration 0.4 wt %): 0.019 wt %
Preferred Sucralose Concentration (wt %) ([9]; NaCl Concentration 0.6 wt %): 0.023 wt %
Preferred Sucralose Concentration (wt %) ([9]; NaCl Concentration 0.8 wt %): 0.027 wt %
Preferred Sucralose Concentration (wt %) ([9]; NaCl Concentration 1.0 wt %): 0.031 wt %
Preferred Sucralose Concentration (wt %) ([9]; NaCl Concentration 1.2 wt %): 0.035 wt %
Preferred Sucralose Concentration (wt %) ([9]; NaCl Concentration 1.4 wt %): 0.038 wt %
Preferred Sucralose Concentration (wt %) ([9]; NaCl Concentration 1.6 wt %): 0.042 wt %
Preferred Sucralose Concentration (wt %) ([9]; NaCl Concentration 1.8 wt %): 0.046 wt %
Preferred Sucralose Concentration (wt %) ([9]; NaCl Concentration 2.0 wt %): 0.050 wt %
Preferred Sucralose Concentration (wt %) ([9]; NaCl Concentration 2.2 wt %): 0.054 wt %
Preferred Sucralose Concentration (wt %) ([9]; NaCl Concentration 2.4 wt %): 0.058 wt %
Preferred Sucralose Concentration (wt %) ([9]; NaCl Concentration 2.6 wt %): 0.062 wt %
Preferred Sucralose Concentration (wt %) ([9]; NaCl Concentration 2.8 wt %): 0.066 wt %
Preferred Sucralose Concentration (wt %) ([9]; NaCl Concentration 3.0 wt %): 0.070 wt %
preferred level of Sucralose ([9]; in the 0.4% NaCl solution): 0.02%
preferred level of Sucralose ([9]; in the 2% NaCl solution): 0.05%
preferred level of Sucralose ([9]; in water alone): 0.005%

OC[C@H]1O[C@@](CO)(O[C@H]2O[C@H](CO)[C@@H](O)[C@H](O)[C@H]2O)[C@@H](O)[C@@H]1O [Sucrose, reference compound]
sweetener concentration providing an equivalent sweetness [1]: 15%
average preference value ([2]; 15% sweetener): 3.3
stability in FLEET PHOSPHO-SODA [5]: effectiveness diminished over time

OC[C@H]1O[C@H](O[C@H]2O[C@H](CO)[C@@H](O)[C@H](O)[C@H]2O)[C@H](O)[C@@H](O)[C@@H]1O [Trehalose]
stability in FLEET PHOSPHO-SODA [5]: effectiveness diminished over time

Thaumatin [Thaumatin (Talin)]
stability in FLEET PHOSPHO-SODA [5]: effectiveness diminished over time
